The source of these data is patent US20140248342A1, “Fe(III) 2,4-Dioxo-1-Carbonyl Complexes For Treatment And Prophylaxis Of Iron Deficiency Symptoms And Iron Deficiency Anaemias” (Vifor (International) AG, priority 2011, published 2014).

Like-named read-outs stand apart in the source and are kept apart here.

Series [1] concerns Sprague-Dawley rats. The settings on record: cited from earlier work; for toxicity in animal studies (in words): literature report London, Smith 1983.
Series [2] deals with Male NMRI (SPF) mice fed a low-iron diet. The series can be described thus: Iron utilization in mouse model (low-iron diet, hemoglobin and body weight increase). The format is in vivo. The note with it: stomach tube, 2 mg iron/kg body weight/day, days 1-5 and 8-12; utilization on day 15 calculated from hemoglobin and body weight increase. The method, then:
The excellent Fe utilizations that can be accomplished through the Fe complexes according to the invention were measured by means of the following mouse model.
Male NMRI (SPF) mice (approximately 3 weeks old) were fed a low-iron diet (approx. 5 ppm iron) for approximately 3 weeks. The iron complexes were then administered to them by means of a stomach tube (2 mg iron/kg body weight/day) 2 times a day for 5 days, with an interruption of 2 days (days 1-5 and 8-12). Utilization on day 15 was calculated from the hemoglobin increase and the body weight increase in accordance with the formula
0.07=Factor for 70 ml blood per kg body weight (BW)
Hb1=Hemoglobin level (g/l) on day 1 Hb2(3)=Hemoglobin level (g/l) on day 8 (or 15) BW4=body weight (g) on day 1 BW9(14)=body weight (g) on day 8 (or 15) Hb1 Control=average hemoglobin level (g/l) on day 1 in the control group, Hb2(3) Control=average hemoglobin level (g/l) on day 8 (or 15) in the control group, BW4 Control=average body weight (g) on day 1 in the control group, BW9(14) Control=average body weight (g) on day 8 (or 15) in the control group, Fe Dos.=entire administered iron (mg Fe) over 5 or 10 days,
Δ Utilization=Fe tot. utilized (examined group)−Fe ut. Control group, utilized from food, (mg Fe)

Series [3] relates to Sprague-Dawley rats. In words: Toxicity compared with Fe(acac)3: oral administration, single dose, observation until 24 h. The format is in vivo. The settings on record: for Number of dead animals after 24 h / animals still alive after 24 hours: 6 Sprague-Dawley rats; for toxicological findings after 24 hours: Sprague-Dawley rats. The text has this:
The toxicity of the novel iron complex compounds was compared with that of tris(acetylacetonate)iron.

Turning to `CC(=O)/C=C(/C)[O-].CC(=O)/C=C(/C)[O-].CC(=O)/C=C(/C)[O-].[Fe+3]` [Fe(Acac)3, tris(acetylacetonate)iron], the “toxicity in animal studies (in words)” value in series [1] was “highly toxic”; in series [1] (listed as iron(III)-(acetylacetonate)3), “very toxic”. In addition, the “Number of dead animals after 24 h” value in series [1] (single oral dose 1000 mg/kg iron complex (160 mg/kg iron), 10 animals, Lit. 1) is 6. Take “Tris-(1-(morpholin-4-yl)pentane-1,2,4-trione)-iron(III)-complex [Example 12]”: the “Utilization n 15 d (abs. %)” value in series [2] is reported as 75 abs. %. As to “Tris-(2,4-dioxopentanamide)-iron(III)-complex [Example 3]”, the “Utilization n 15 d (abs. %)” value in series [2] is reported as 82 abs. %. In addition, the “Number of dead animals after 24 h” value in series [3] (single oral dose 1400 mg/kg iron complex (170 mg/kg iron)) is given as 0. In addition, in series [3] (single oral dose 1400 mg/kg), the “animals still alive after 24 hours” value is reported as 6 and the “toxicological findings after 24 hours” value is “absolutely no toxicological findings”.

“Tris-(5-methyl-1-(morpholin-4-yl)hexane-1,2,4-trione)-iron(III)-complex [Example 11]”: the “Utilization n 15 d (abs. %)” value in series [2] is recorded as 51 abs. %. On the same count and under the same terms, the result for “Tris-(N,N,5,5-tetramethyl-2,4-dioxohexanamide)-iron(III)-complex [Example 8]” reads 72 abs. %; that for “Tris-(N,N,5,-trimethyl-2,4-dioxohexanamid)-iron(III)-complex [Example 9]”, 89 abs. %. On to “Tris-(ethyl 2,4-dioxopentanoate)-iron(III)-complex [Example 1]”, for which the “Utilization n 15 d (abs. %)” value in series [2] is 106 abs. %. Also, the “Number of dead animals after 24 h” value in series [3] (single oral dose 1600 mg/kg iron complex (170 mg/kg iron)) is reported as 0. Besides, in series [3] (single oral dose 1600 mg/kg), the “animals still alive after 24 hours” value stood at 6 and the “toxicological findings after 24 hours” value is reported as “absolutely no toxicological findings”.

For “Tris-(ethyl oxo(2-oxocyclohexyl)acetate)-iron(III)-complex [Example 6]”, the “Utilization n 15 d (abs. %)” value in series [2] is given as 65 abs. %. Same read-out and setting: the result for “Tris-(ethyl oxo(2-oxocyclopentyl)acetate)-iron(III)-complex [Example 5]” reads 59 abs. %. On the same count and under the same terms, the result for “Tris-(methyl 2,4-dioxopentanoate)-iron(III)-complex [Example 2]” reads 94 abs. %.
